Data: BigSolDB 2.1

CC(=O)N1CCN(c2ccc(OC[C@@H]3CO[C@@](Cn4ccnc4)(c4ccc(Cl)cc4Cl)O3)cc2)CC1 (racemic)
solubility (mole fraction)
Conditions	293.2 K	298.2 K	303.2 K	308.2 K	313.2 K
in NMP	0.0212	0.0242	0.0271	0.0301	0.0333
in ethanol	0.00235	0.00299	0.00361	0.00438	0.00527
